# According to US8173144B2, “Administration of urea compounds for combating signs of cutaneous aging” (L'Oreal, priority 2004, dated 2012):
# Tested on: acid proteases of the SC (stratum corneum)
# Experiment: Activation of acid proteases of the stratum corneum (Enzchek fluorimetry, Bodipy FL casein substrate)
# Format: biochemical
# Method: The property of activating certain acid proteases of the SC (stratum corneum) is evaluated. This activity is measured by virtue of a quantitative determination by fluorimetry using the Enzchek kit (Molecular Probes). This protocol uses a Bodipy FL casein substrate which releases fluorescence when it is hydrolyzed. The fluorescence released is directly proportional to the protease activity. It is read directly in a 96-well plate with a spectrofluorimeter at 750 V at 485 nm in excitation and 535 nm in emission.
# The molecules are prepared at 0, 1, 2 and 4M in a 0.1M; pH 5.0; acetate buffer.
# An enzyme extract is prepared from acetone powders.
# 2 ml of PBS buffer+0.1% of Triton X100 are brought into contact for 1 h in crushed ice with 200 mg of stratum corneum acetone powders. The mixture is subsequently ground in a Potter homogenizer and then centrifuged at 15 000 g for 10 min at 4° C. The supernatant is collected. The Enzchek substrate, diluted to 1/200, is incorporated in each solution comprising the molecules. The assays are repeated three times.
# The reaction mixture is prepared directly in a white plate.
# 10 μl of enzyme extract are added to 200 μl of solution comprising the substrate at 0, 1, 2 or 4M. The readings are carried out at t0, t 2h, t 16h and t 24h.
# [1] = 1 and 2M in 0.1M acetate buffer pH 5.0, readings t0, t 2h, t 16h, t 24h
Compound,acid protease activity (fluorescence) with respect to the control [1],"acid protease activity (fluorescence) with respect to the control (4M in 0.1M acetate buffer pH 5.0, whatever the time studied)"
"NC(=O)NCCO [N-(2-hydroxethyl)urea, N-(2-hydroxyethyl)urea]",significant increase in the activity,marked decrease in the activity
"NC(N)=O [Urea, urea]",slightly activating effect on the acid proteases up to two hours,–
